According to patent US9446066B2, “Methods for reducing pulmonary uptake of intravenously injected cells” (priority 2010, dated 2016):
Values joined by “and” are separate entries in the source; they are usually repeats but may differ in a detail not shown here. Equal values may be shown once.

Assays:
T-lymphoblasts = experiment: PET-examination of lung uptake and distribution of transfused [18F]FDG-labeled T-lymphoblasts; format: in vivo, pig; conditions: for pulmonary uptake of T-lymphoblasts compared to intravenous administration alone (in words): pre-incubation and intravenous co-administration with dextran sulfate
Procedure: In this study we present a method to monitor transfusion of T-lymphoblasts in vivo in a porcine model by PET-imaging. Porcine T-lymphoblasts were labeled with [^18F]FDG prior to administration, and the kinetics and bio-distribution of the cells was monitored for up to 2 hours. [^18F]FDG is a functional analogue to glucose, but cannot be metabolized further than the initial phosphorylation by hexokinase and is trapped in the cell cytoplasm. The same concept has been applied by our group to image transplantation of islets of Langerhans in a porcine model and in the clinical setting.
In the present work, three modes of administration were compared; intravenous administration with or without co-administration of the complement and coagulatory inhibitor low molecular weight dextran sulphate (LMW-DS), and intraarterial administration.
Spleens from three months old pigs were surgically resected and stored in PBS for immediate preparation. Spleens were cut into smaller fragments and mashed first against a 1 mm steel mesh and a second time with a syringe rubber plunger against a fine nylon mesh. The tissue was resuspended in PBS and the T-lymphoblasts were isolated using Ficoll-Paque (GE-Healthcare Uppsala, Sweden) density gradient centrifugation. All T-lymphoblasts were activated with PHA (1 μg/mL) (Invitrogen, Carlsbad, Calif., USA) to simulate the clinical setting of adoptively transferred tumor infiltrating lymphocytes.
T-lymphoblasts were suspended in 10-15 mL of PBS and administered over 10 minutes either intravenously into the internal jugular vein (n=5) or intraarterially into the ascending aorta (n=1). Two of the pigs given intravenous administration were pretreated with LMW-DS (4.5 mg/kg) (Apoteket AB, Umeå, Sweden). The T-lymphoblasts were in these two cases co-administered intravenously together with LMW-DS (9 mg/kg, followed by continuous infusion of 7.2 mg/kg/h).
(§1) [^18F]FDG (t1/2=109.8 min) was prepared according to standard procedures (TRACERIab FxFDG, GE Medical Systems, USA). Cells were incubated with [^18F]FDG in 7-10 mL PBS for 60 minutes at 37° C. before being washed to remove excess radioactivity.
Six pigs were examined by PET after administration of [^18F]FDG-labeled T-lymphoblasts. A GE Discovery ST PET/CT scanner (n=3) or a Hamamatsu SHR-7700 scanner (n=3) was used. Dynamic sequences were acquired over the lungs and liver for up to 120 minutes. The kinetic data obtained was expressed as absolute number of cells or the percentage of administered cells. Results are given as averages±SEM.
The concentration and total amount of cells trapped in lung tissue could be quantified. Table 1 presents the amount of T-lymphoblasts in the lungs at 30 minutes. Between 80 and up to 635 million cells (16 to 79% of the grafts) was trapped in lung tissue after administration. To quantify the amount of cells trapped in hotspots we defined two levels of density: hotspots with a cellular density over either 250.000 cells/cc (moderate density) or over 500.000 cells/cc (high density).

[1] = human patients, following an administration of dextran sulfate; cited from earlier work
Porcine T-lymphoblasts = experiment: T-lymphoblast labeling and in vitro retention of [18F]FDG; format: cell-based; conditions: mono-exponential fit, R^2=0.99; 6 time points over 120 minutes
Procedure: as §1
The retention (the rate of tracer washout through GLUTs after dephosphorylation of [^18F]FDG-6P) was measured in triplicates at 6 different time points over 120 minutes and the retention half-life was estimated by fitting the data to a mono-exponential curve.

[2] = range over the two LMW-DS pigs, lungs at 30 minutes

Row | Compound | % of cells in lungs (T-lymphoblasts; at 30 minutes, single pig) | lung uptake (% of the administered T-lymphoblasts), average (T-lymphoblasts; at completed transfusion, intravenous co-administration of LMW-DS, pretreated pigs, n=2) [%] | pulmonary uptake of T-lymphoblasts compared to intravenous administration alone (in words) (T-lymphoblasts) | pulmonary uptake of T-lymphoblasts compared to intravenous administration alone (in words) (T-lymphoblasts; listed as dextran sulfate) | amount of cells in high density hotspots (T-lymphoblasts; [2]) | cells in high density hotspots as % of lung uptake (T-lymphoblasts; [2]) | APTT safely achieved [1] | [18F]FDG retention half-life (Porcine T-lymphoblasts) [h]
1 | low molecular weight dextran sulfate [LMW-DS] | 16.3% and 31.8% | 36.6 | lower | decreased | 0-111 million cells | 0-39% | about 250 s | 
2 | OC[C@H]1OC(O)[C@H]([18F])[C@@H](O)[C@@H]1O (stereo partly drawn) [[^18F]FDG, ^18F-2-fluoro-2-deoxy-D-glucose] |  |  |  |  |  |  |  | 5.32
